Assays:
epidermal stem cells [1] = assay: Culturing of fresh human skin with agents, fluorescent immunostaining for Ki-67 and MCSP; format: cell-based; details: fresh human abdominal skin, final concentration 0.01%
Experimental: Fresh skin samples taken from the abdominal regions of participants (aged 20 to 30) with informed consent were purchased from KAC Co., Ltd. The samples were cultured in medium comprising an equal mixture of 10% FBS-DMEM (Thermo Fisher Scientific K.K., 11885084) and Humedia-KG2 (KURABO Industries Ltd., KK-2150S) with addition of 1-(2-hydroxyethyl)-2-imidazolidinone (“S173”, final concentration: 0.01%), which has an effect of inhibiting both MMP-9 and heparanase, […]”, final concentration: 0.01%), or a combination of 1-(2-hydroxyethyl)-2-imidazolidinone and […]”, final concentration: 0.01%). As a control, culturing was carried out in medium containing an equal amount of DMSO solvent lacking these agents. Medium was exchanged daily, and skin tissue slices were collected on the 2nd day (Day2). Following the AMeX method, fresh human skin was dehydrated and fixed using cold acetone and exchanged with acetone, methyl benzoate and xylene in that order, and then embedded in paraffin. Slices with thicknesses of 3 μm were prepared for tissue staining. Paraffin slices cut to 3 μm thicknesses were deparaffinized with xylene and hydrated using EtOH. Antibodies for Ki-67 (SP6) (Thermo Fisher Scientific K.K., RM-9106-S, rabbit […] monoclonal antibody) and antibodies for MCSP (melanoma-associated chondroitin sulphate proteoglycan) (Millipore, MAB2029, 9.2.27, mouse monoclonal antibody) were used for fluorescent immunostaining.

epidermal stem cells [2] = details: disclosed in NPL 1 (Iriyama et al., Scientific Reports 2020); cited from earlier work
[3] = Day2, compared to control without addition of agent (Day2 control)

O=C1NCCN1CCO [S173, 1-(2-hydroxyethyl)-2-imidazolidinone]
number of Ki67-positive cells (cell proliferation marker) (epidermal stem cells [1]; [3]): increased
number of MCSP-positive cells (epidermal basal stem cell marker) (epidermal stem cells [1]; [3]): increased
number of Ki67+MCSP-positive cells (epidermal stem cells [1]; Day2, compared to the control): increased
number of stem cells (MCSP-positive) relative to Day0 (epidermal stem cells [1]; after culturing for 2 days, compared to Day0 level): maintained at the level of Day0
effect on epidermal stem cell counts (epidermal stem cells [2]): maintaining epidermal stem cell counts

Source: patent publication US20250041189A1, “STEM CELL PROLIFERATION PROMOTER” (SHISEIDO COMPANY, LTD., priority 2021, published 2025)
